Test results published in US20150258059A1, “ANTIMICROBIAL AND RADIOPROTECTIVE COMPOUNDS” (BioDiem, Ltd, priority 2001, published 2015).
In brackets after ≈: the same amount, converted by molar mass. Where two headings read alike, the source gives them in different places.

Legend:
[1] = tested on: E. faecalis-clinical isolate 1; assay: microbe, parasite or virus in culture; format: cell-based
[2] = tested on: Staphylococcus aureus strain 674; assay: Impregnated agar serial double dilutions; conditions: meat peptone agar
Rhizopus stoloniefer = assay: M38-P microdilution MIC/MFC; format: cell-based; conditions: Table 16, 48 h, 35° C.
[3] = tested on: Staphylococcus epidermidis BK-30; assay: Sensitivity of strains: suppression of growth; format: cell-based; conditions: Compound (1) 1.0%; antibiotics disc method
[4] = tested on: Shigella flexneri M-2A6907; assay: Sensitivity of strains: suppression of growth; format: cell-based; conditions: Compound (1) 1.0%; antibiotics disc method
Bacillus subtilis [5] = assay: Rate of kill, viable counts; conditions: in 2 h
Candida albicans = assay: M38-P microdilution MIC/MFC; format: cell-based; conditions: Table 16, 24 h, 35° C.
[6] = tested on: six bacterial test cultures; format: cell-based
[7] = tested on: β-hemolytic streptococcus B-624; assay: Sensitivity of strains: suppression of growth; format: cell-based; conditions: Compound (1) 1.0%; antibiotics disc method
Aspergillus fumigatus [8] = assay: NCCLS broth macro-dilution MIC/MFC (RPMI); format: cell-based; conditions: Table 10, 7 day, 30° C.
[9] = tested on: Torula histolytica (Cryptococcus); assay: Sensitivity of pathogenic fungi; format: cell-based; conditions: Inoculation 10^5
Bacillus subtilis RMIT = assay: NCCLS broth microdilution MIC/MBC; format: cell-based; conditions: for MIC: Bacillus subtilis
[10] = tested on: Staphylococcus aureus B-685; assay: Sensitivity of strains: suppression of growth; format: cell-based; conditions: Compound (1) 1.0%; antibiotics disc method
[11] = tested on: S. aureus-clinical isolate 2; assay: microbe, parasite or virus in culture; format: cell-based
Source text: NCCLS-USA Standard Method—Broth microdilution (or macrodilution) (Mueller-Hinton).
Inoculum 1-4×10^4 cfu (or −4×10^5 cfu). Ciprofloxacin test control. Chlorhexidine values added for disinfectant and antiseptic activity comparison.

[12] = tested on: Campylobacter jejuni 54/1-2; assay: MIC/MMC against clinical strains of Campylobacter spp.; conditions: Table 18; clinical strain isolated from humans
Rhodotorula rubra = assay: NCCLS broth macro-dilution MIC/MFC (RPMI); format: cell-based; conditions: Table 10, 4 day, 30° C.
B. subtilis = assay: Antibacterial activity in the presence of blood, macrodilution; format: cell-based; conditions: for MIC: Bacillus subtilis
Aspergillus fumigatus [13] = assay: M38-P microdilution MIC/MFC; format: cell-based; conditions: Table 16, 48 h, 35° C.
Bacillus subtilis [14] = assay: Stability of stock solutions on storage, potency by MIC/MBC; format: cell-based
Staphylococcus aureus = assay: Agar plug diffusion, zone of retardation; conditions: plug impregnated at 0.5%
[15] = tested on: Klebsiella pneumoniae M-A21; assay: Sensitivity of strains: suppression of growth; format: cell-based; conditions: Compound (1) 1.0%; antibiotics disc method
[16] = tested on: Klebsiella pneumoniae strain 312; assay: Impregnated agar serial double dilutions; conditions: meat peptone agar
Bacteroides fragilis = assay: NCCLS broth microdilution MIC/MBC; format: cell-based; conditions: for MIC: Bacteroides fragilis
Microsporum gypseum = assay: M38-P microdilution MIC/MFC; format: cell-based; conditions: Table 16, Dermatophytes
S. pyogenes = assay: Broth dilution bioassay, low inoculum; format: cell-based; conditions: in MHB
[17] = stock 512 μg/mL stored 4° C., 0 weeks
[18] = stock 512 μg/mL stored 4° C., 2 weeks
[19] = stock 512 μg/mL stored 4° C., 4 weeks
[20] = stock 512 μg/mL stored 4° C., 6 weeks
[21] = stock 512 μg/mL stored 4° C., 8 weeks
[22] = stock 512 μg/mL stored 4° C., 10 weeks
[23] = stock 512 μg/mL stored 4° C., 12 weeks
[24] = stock 512 μg/mL stored RT, 0 weeks
[25] = stock 512 μg/mL stored RT, 2 weeks
[26] = stock 512 μg/mL stored RT, 4 weeks
[27] = stock 512 μg/mL stored RT, 6 weeks
[28] = stock 512 μg/mL stored RT, 8 weeks
[29] = stock 512 μg/mL stored RT, 10 weeks
[30] = stock 512 μg/mL stored RT, 12 weeks
[31] = stock 512 μg/mL stored −20° C., 0 weeks
[32] = stock 512 μg/mL stored −20° C., 2 weeks
[33] = stock 512 μg/mL stored −20° C., 4 weeks
[34] = stock 512 μg/mL stored −20° C., 6 weeks
[35] = stock 512 μg/mL stored −20° C., 8 weeks
[36] = stock 512 μg/mL stored −20° C., 10 weeks
[37] = stock 512 μg/mL stored −20° C., 12 weeks

C/C(=C\c1ccc2c(c1)OCO2)[N+](=O)[O-] [Compound (1)] showed an MMC [1] of 32 µg/mL, an MMC ([1]; 35° C., 24 hours) of 32 µg/mL and an MIC ([1]; Enterococcus faecalis, 35° C., 24 hours) of 32 µg/mL (≈ 154 µM). For the same compound, the “Minimal % Compound (1) giving complete inhibition of test culture” value [2] was 0.015%, the MIC (Rhizopus stoloniefer; Rhizopus, read-out: MIC) was 4 µg/mL (≈ 19.3 µM) and the MMC (Rhizopus stoloniefer) was 16 µg/mL. For the same compound, the “Suppression of Growth (+/−)” value [3] was “+”, the “Suppression of Growth (+/−)” value [4] was “+” and the “Log reduction in viable count” value (Bacillus subtilis [5]; 256 μg/mL) was 3.8 in 2 h. For the same compound, the “Log reduction in viable count” value (Bacillus subtilis [5]; 512 μg/mL) was 4 in 2 h, the MIC (Candida albicans; Candida albicans, read-out: MIC) was 8 µg/mL (≈ 38.6 µM) and the MMC (Candida albicans) was 8 µg/mL. The “Average zone of retardation” value [6] was 5.17, the “Suppression of Growth (+/−)” value [7] was “+” and the MIC (Aspergillus fumigatus [8]; Aspergillus fumigatus, 168 h) was 8 µg/mL (≈ 38.6 µM). For the same compound, the MMC (Aspergillus fumigatus [8]) was 32 µg/mL, the “Number of microbes: Growth” value ([9]; 0.1%) was 0 and the “Number of microbes: Retardation” value ([9]; 0.1%) was 10^5. The “Number of microbes: Growth” value ([9]; 0.5%) was 0, the “Number of microbes: Retardation” value ([9]; 0.5%) was 10^5 and the “Number of microbes: Growth” value ([9]; 2.0%) was 0. For the same compound, the “Number of microbes: Retardation” value ([9]; 2.0%) was 10^5, the MIC (Bacillus subtilis RMIT; Table 9, 35° C., 24 hours) was 16 µg/mL (≈ 77.2 µM) and the MIC (Bacillus subtilis RMIT; Table 17, 2 or 3 replicates) was 16 µg/mL (≈ 77.2 µM). The MMC (Bacillus subtilis RMIT; Table 9, 35° C., 24 hours) was 16 µg/mL, the MMC (Bacillus subtilis RMIT; Table 17, 2 or 3 replicates) was 16 µg/mL and the “Suppression of Growth (+/−)” value [10] was “+”. For the same compound, the MIC ([11]; Staphylococcus aureus, 24 h) was 16 µg/mL (≈ 77.2 µM), the MMC ([11]; Table 9, 35° C., 24 hours) was 16 µg/mL and the MMC ([11]; Table 17, 2 or 3 replicates) was 16 µg/mL. The MMC [12] was 2, the MIC (Rhodotorula rubra; Rhodotorula, 96 h) was 8 µg/mL (≈ 38.6 µM) and the MMC (Rhodotorula rubra) was 8 µg/mL. For the same compound, the MMC (B. subtilis; 5% blood) was 16 µg/mL, the MMC (B. subtilis; 10% plasma) was 8 µg/mL and the MIC (B. subtilis; 5% blood) was 8 µg/mL. It also gave an MIC (B. subtilis; 10% plasma) of 8 µg/mL, an MIC (B. subtilis; — (no plasma or blood)) of 16 µg/mL and an MIC (Aspergillus fumigatus [13]; Aspergillus fumigatus) of 8 µg/mL (≈ 38.6 µM). For the same compound, the MMC (Aspergillus fumigatus [13]) was 32 µg/mL, the “stability of dilute solutions on storage” value (Bacillus subtilis [14]; 12 weeks at 4° C. and −20° C.) was “very stable” and the MBC (Bacillus subtilis [14]; [17]) was 8 µg/mL (≈ 38.6 µM). It also gave an MIC (Bacillus subtilis [14]; [17]) of 4 µg/mL (≈ 19.3 µM), an MBC (Bacillus subtilis [14]; [18]) of 8 µg/mL (≈ 38.6 µM) and an MIC (Bacillus subtilis [14]; [18]) of 4 µg/mL (≈ 19.3 µM). The MBC (Bacillus subtilis [14]; [19]) was 16 µg/mL (≈ 77.2 µM), the MIC (Bacillus subtilis [14]; [19]) was 4 µg/mL (≈ 19.3 µM) and the MBC (Bacillus subtilis [14]; [20]) was 16 µg/mL (≈ 77.2 µM). For the same compound, the MIC (Bacillus subtilis [14]; [20]) was 4 µg/mL (≈ 19.3 µM), the MBC (Bacillus subtilis [14]; [21]) was 16 µg/mL (≈ 77.2 µM) and the MIC (Bacillus subtilis [14]; [21]) was 4 µg/mL (≈ 19.3 µM). For the same compound, the MBC (Bacillus subtilis [14]; [22]) was 16 µg/mL (≈ 77.2 µM), the MIC (Bacillus subtilis [14]; [22]) was 4 µg/mL (≈ 19.3 µM) and the MBC (Bacillus subtilis [14]; [23]) was 16 µg/mL (≈ 77.2 µM). For the same compound, the MIC (Bacillus subtilis [14]; [23]) was 4 µg/mL (≈ 19.3 µM), the MBC (Bacillus subtilis [14]; [24]) was 8 µg/mL (≈ 38.6 µM) and the MIC (Bacillus subtilis [14]; [24]) was 4 µg/mL (≈ 19.3 µM). It also gave an MBC (Bacillus subtilis [14]; [25]) of 8 µg/mL (≈ 38.6 µM), an MIC (Bacillus subtilis [14]; [25]) of 4 µg/mL (≈ 19.3 µM) and an MBC (Bacillus subtilis [14]; [26]) of 8 µg/mL (≈ 38.6 µM). The MIC (Bacillus subtilis [14]; [26]) was 4 µg/mL (≈ 19.3 µM), the MBC (Bacillus subtilis [14]; [27]) was 16 µg/mL (≈ 77.2 µM) and the MIC (Bacillus subtilis [14]; [27]) was 4 µg/mL (≈ 19.3 µM). The MBC (Bacillus subtilis [14]; [28]) was 16 µg/mL (≈ 77.2 µM), the MIC (Bacillus subtilis [14]; [28]) was 8 µg/mL (≈ 38.6 µM) and the MBC (Bacillus subtilis [14]; [29]) was 16 µg/mL (≈ 77.2 µM). It also gave an MIC (Bacillus subtilis [14]; [29]) of 8 µg/mL (≈ 38.6 µM), an MBC (Bacillus subtilis [14]; [30]) of 16 µg/mL (≈ 77.2 µM) and an MIC (Bacillus subtilis [14]; [30]) of 8 µg/mL (≈ 38.6 µM). It also gave an MBC (Bacillus subtilis [14]; [31]) of 8 µg/mL (≈ 38.6 µM), an MIC (Bacillus subtilis [14]; [31]) of 4 µg/mL (≈ 19.3 µM) and an MBC (Bacillus subtilis [14]; [32]) of 8 µg/mL (≈ 38.6 µM). The MIC (Bacillus subtilis [14]; [32]) was 4 µg/mL (≈ 19.3 µM), the MBC (Bacillus subtilis [14]; [33]) was 16 µg/mL (≈ 77.2 µM) and the MIC (Bacillus subtilis [14]; [33]) was 4 µg/mL (≈ 19.3 µM). For the same compound, the MBC (Bacillus subtilis [14]; [34]) was 16 µg/mL (≈ 77.2 µM), the MIC (Bacillus subtilis [14]; [34]) was 4 µg/mL (≈ 19.3 µM) and the MBC (Bacillus subtilis [14]; [35]) was 16 µg/mL (≈ 77.2 µM). It also gave an MIC (Bacillus subtilis [14]; [35]) of 4 µg/mL (≈ 19.3 µM), an MBC (Bacillus subtilis [14]; [36]) of 16 µg/mL (≈ 77.2 µM) and an MIC (Bacillus subtilis [14]; [36]) of 4 µg/mL (≈ 19.3 µM). The MBC (Bacillus subtilis [14]; [37]) was 16 µg/mL (≈ 77.2 µM), the MIC (Bacillus subtilis [14]; [37]) was 4 µg/mL (≈ 19.3 µM) and the “Size of zone of retardation of the growth” value (Staphylococcus aureus) was 6.5. For the same compound, the “Suppression of Growth (+/−)” value [15] was “+”, the “Minimal % Compound (1) giving complete inhibition of test culture” value [16] was 0.12% and the MIC (Bacteroides fragilis; Table 9, 48 h) was 16 µg/mL (≈ 77.2 µM). For the same compound, the MIC (Bacteroides fragilis; Table 17, 2 or 3 replicates) was 16 µg/mL (≈ 77.2 µM), the MMC (Bacteroides fragilis; Table 9, 48 h) was 32 µg/mL and the MMC (Bacteroides fragilis; Table 17, 2 or 3 replicates) was 32 µg/mL. The MIC (Microsporum gypseum; Nannizzia gypsea) was 1 µg/mL (≈ 4.83 µM), the MMC (Microsporum gypseum) was 8 µg/mL and the “concentration inhibiting low inoculum” value (S. pyogenes) was 1 µg/mL.
